In patent US20060222599A1, “Inhalative powder formulations containing the CGRP-antagonist 1 [N2-[3,5-dibromo-N-[[4-(3,4-dihydro-2(1H)-oxoquinazolin-3-yl)-1-piperidinyl]carbonyl]-D-tyrosyl]-L-lysyl]-4-(4-pyridinyl)-piperazine” (Boehringer Ingelheim International GmbH, priority 2003, published 2006):
Read-outs that look alike come from different tables or passages of the source.

Key:
[1] = physical stability of the amorphous micronised active substance in powder mixtures with excipients; assay type: physicochemical
Excerpt: It is known that the amorphous state of solids is thermodynamically unstable. In particular, this contributes to the fact that microparticles which have amorphous parts or are purely amorphous are metastable in their physicochemical properties. Typically, amorphous or partially amorphous pharmaceutical active substances and excipients, such as sugars, for example, recrystallise spontaneously during storage under normal conditions. The process may be accelerated by an increase in the relative humidity and possibly the temperature. In association with this recrystallisation, the particles change their surface characteristics, their particle morphology and their particle size.

[2] = systemic bioavailability after pulmonary or nasal inhalation; assay type: in vivo; details: powder mixture with excipients, inhaled
hygroscopicity = assay type: physicochemical
[3] = specific surface area (multi point BET, nitrogen); assay type: physicochemical; details: air-jet-ground, anhydrous
Excerpt: • Measuring method: In order to determine the particle size the powder is fed into a laser diffraction spectrometer using a dispersing unit. The median value X50 refers to the particle size below which 50% of the quantity of particles fall. The Q(5.8) value describes the percentage of particles which are less than 5.8 μm in size. • Measuring device: Laser diffraction spectrometer (HELOS), Messrs. • Sympatec • Software: WINDOX Version 3.3/REL 1 • Dispersing unit: RODOS/dispersing pressure: 3 bar • Focal length: 100 mm [measuring range: 0.9 . . . . 175 μm] • Evaluation method: HRLD (V 3.3 Rel. 1) b) Determining the Specific Surface Area: • Measuring method: The specific surface is determined by exposing the powder sample to a nitrogen atmosphere at different pressures.
Cooling the sample causes the nitrogen molecules to be condensed on the surface of the particles. The quantity of condensed nitrogen is determined by means of the drop in pressure in the system and the specific surface area of the sample is calculated by means of the surface nitrogen requirement and the weight of the sample. • Measuring device: Tri Star Multi Point BET, Messrs. Micromeritics • Heating station: VacPrep 061, Messrs. Micromeritics
Heating: approx. 12 h/40° C.

[4] = conventional formulations; cited from earlier work

NCCCC[C@H](NC(=O)[C@@H](Cc1cc(Br)c(O)c(Br)c1)NC(=O)N1CCC(N2Cc3ccccc3NC2=O)CC1)C(=O)N1CCN(c2ccncc2)CC1 [A, 1-[N^2-[3,5-dibromo-N-[[4-(3,4-dihydro-2(1H)-oxoquinazolin-3-yl)-1-piperidinyl]carbonyl]-D-tyrosyl]-L-lysyl]-4-(4-pyridinyl)-piperazine]
amorphous form on storage (X-ray powder diffractometry) ([1]; amorphous micronised particles, shelf life of the medicament): maintained throughout the shelf life
physical stability ([1]; powder mixtures with excipients): physically stable
bioavailability by pulmonary or nasal inhalation [2]: sufficiently bioavailable
hygroscopicity (hygroscopicity): hygroscopic
hygroscopicity (hygroscopicity; listed as active substance): strongly hygroscopic
specific surface area [3]: 20.2 m^2/g
oral bioavailability [4]: very limited oral bioavailability
